Results from PubChem BioAssay AID248 (DTP/NCI, 2004).
Several values for one entry are separate records, joined by “and”; a condition that tells them apart may be missing. Equal entries are not always repeated. Toxic doses and inconclusive results are not listed.

System: L1210 leukemia ip in BDF1 mice, survival T/C
Test: NCI In Vivo Anticancer Drug Screen. Data for tumor model L1210 Leukemia (intraperitoneal) in B6D2F1 (BDF1) mice
Conditions: endpoint: mean survival time, higher = longer survival
In short: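 Antitumor effect is assessed in tumor-bearing animals. Survival in the compound arm is compared with a vehicle-dosed control arm and expressed as their quotient.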

[1] = dose: 100.0 mg/kg/injection, schedule: Q01DX009 (ip), vehicle: saline with Tween-80
[2] = dose: 200.0 mg/kg/injection, schedule: Q01DX009 (ip), vehicle: saline with Tween-80
[3] = dose: 400.0 mg/kg/injection, schedule: Q01DX009 (ip), vehicle: saline with Tween-80
[4] = dose: 100.0 mg/kg/injection, schedule: Q04DX002 (ip), vehicle: Klucel (hydroxypropylcellulose) (HPC)
[5] = dose: 200.0 mg/kg/injection, schedule: Q04DX002 (ip), vehicle: Klucel (hydroxypropylcellulose) (HPC)
[6] = dose: 400.0 mg/kg/injection, schedule: Q04DX002 (ip), vehicle: Klucel (hydroxypropylcellulose) (HPC)
[7] = dose: 25.0 mg/kg/injection, schedule: Q01DX009 (ip), vehicle: Klucel (hydroxypropylcellulose) (HPC)
[8] = dose: 50.0 mg/kg/injection, schedule: Q01DX009 (ip), vehicle: Klucel (hydroxypropylcellulose) (HPC)
[9] = dose: 100.0 mg/kg/injection, schedule: Q01DX009 (ip), vehicle: Klucel (hydroxypropylcellulose) (HPC)
[10] = dose: 100.0 mg/kg/injection, schedule: Q04DX003 (ip), vehicle: Klucel (hydroxypropylcellulose) (HPC)
[11] = dose: 200.0 mg/kg/injection, schedule: Q04DX003 (ip), vehicle: Klucel (hydroxypropylcellulose) (HPC)
[12] = dose: 400.0 mg/kg/injection, schedule: Q04DX003 (ip), vehicle: Klucel (hydroxypropylcellulose) (HPC)
[13] = dose: 100.0 mg/kg/injection, schedule: Q01DX001 (ip), vehicle: saline with Tween-80
[14] = dose: 200.0 mg/kg/injection, schedule: Q01DX001 (ip), vehicle: saline with Tween-80
[15] = dose: 400.0 mg/kg/injection, schedule: Q01DX001 (ip), vehicle: saline with Tween-80
[16] = dose: 25.0 mg/kg/injection, schedule: Q01DX Z (ip), vehicle: saline
[17] = dose: 50.0 mg/kg/injection, schedule: Q01DX001 (ip), vehicle: saline
[18] = dose: 100.0 mg/kg/injection, schedule: Q01DX001 (ip), vehicle: saline
[19] = dose: 200.0 mg/kg/injection, schedule: Q01DX001 (ip), vehicle: saline
[20] = dose: 400.0 mg/kg/injection, schedule: Q01DX001 (ip), vehicle: saline
[21] = dose: 12.5 mg/kg/injection, schedule: Q01DX Z (ip), vehicle: saline
[22] = dose: 50.0 mg/kg/injection, schedule: Q01DX Z (ip), vehicle: saline
[23] = dose: 200.0 mg/kg/injection, schedule: Q01DX009 (ip), vehicle: Klucel (hydroxypropylcellulose) (HPC)
[24] = dose: 400.0 mg/kg/injection, schedule: Q01DX009 (ip), vehicle: Klucel (hydroxypropylcellulose) (HPC)
[25] = dose: 100.0 mg/kg/injection, schedule: Q01DX001 (ip), vehicle: carboxymethylcellulose (CMC)
[26] = dose: 200.0 mg/kg/injection, schedule: Q01DX001 (ip), vehicle: carboxymethylcellulose (CMC)
[27] = dose: 400.0 mg/kg/injection, schedule: Q01DX001 (ip), vehicle: carboxymethylcellulose (CMC)
[28] = dose: 50.0 mg/kg/injection, schedule: Q01DX009 (ip), vehicle: saline with Tween-80

With `CC1(C)OC2OC(C(O)CN3CC3)C(O)C2O1` (stereo not given) the T/C (dose: 24.6 mg/kg/injection, schedule: Q01DX Z (ip), vehicle: methylcellulose (MC)) was 104 % of control, the T/C (dose: 37.0 mg/kg/injection, schedule: Q01DX Z (ip), vehicle: methylcellulose (MC)) was 107 % of control and the T/C (dose: 56.0 mg/kg/injection, schedule: Q01DX Z (ip), vehicle: methylcellulose (MC)) was 99 % of control. The T/C (dose: 84.0 mg/kg/injection, schedule: Q01DX Z (ip), vehicle: methylcellulose (MC)) was 107 % of control.
For `CC1C(=O)CC(C)(C)CC1=O`, the T/C [1] was 105 % of control, the T/C [2] was 109 % of control and the T/C [3] was 104 % of control.
For `O=C(Nc1ccc(Cl)cc1)O/C(=C(/OC(=O)Nc1ccc(Cl)cc1)c1ccc(Cl)cc1)c1ccc(Cl)cc1`, the T/C [4] was 96 % of control, the T/C [5] was 92 % of control and the T/C [6] was 89 % of control.
`C=CCNCC(O)c1ccccc1` (stereo not given) was tested, and the T/C [7] was 90 % of control, the T/C [8] was 95 % of control and the T/C [9] was 95 % of control and 103 % of control. The T/C [10] was 95 % of control, the T/C [11] was 101 % of control and the T/C [12] was 95 % of control.
For `O=c1oc2ccc3ccccc3c2c(-c2ccc(O)cc2)c1-c1ccccc1`, the T/C [13] was 89 % of control, the T/C [14] was 92 % of control and the T/C [15] was 92 % of control.
With `CC(=O)[O][Sn]([CH2]C1CCCCC1)([CH2]C1CCCCC1)[CH2]C1CCCCC1` the T/C (dose: 6.25 mg/kg/injection, schedule: Q04DX002 (ip), vehicle: saline with Tween-80) was 96 % of control and the T/C (dose: 12.5 mg/kg/injection, schedule: Q04DX002 (ip), vehicle: saline with Tween-80) was 96 % of control.
In the case of `Nc1ncnc2nccnc12`, the T/C [16] is reported as 103 % of control and the T/C (dose: 75.0 mg/kg/injection, schedule: Q01DX Z (ip), vehicle: saline) is reported as 89 % of control.
In the case of `CCOC(=O)CC1C(=O)CCCC1=O`, the T/C [13] is reported as 98 % of control, the T/C [14] is reported as 104 % of control and the T/C [15] is reported as 95 % of control.
`CCOC(=O)OC1C(OC)OC2COC(c3ccccc3)OC2C1O` (stereo not given) was tested, and the T/C [4] was 91 % of control, the T/C [5] was 91 % of control and the T/C [6] was 107 % of control.
`COc1cc(Br)c(CC(=O)c2c[nH]c3ccc(Br)cc23)cc1OC` was tested, and the T/C [17] was 100 % of control, the T/C [18] was 94 % of control and the T/C [19] was 105 % of control. The T/C [20] was 94 % of control.
`NC(=S)N/N=C/c1ncccc1O` was tested, and the T/C (dose: 1.8 mg/kg/injection, schedule: Q01DX Z (ip), vehicle: saline) was 111 % of control, the T/C (dose: 2.7 mg/kg/injection, schedule: Q01DX Z (ip), vehicle: saline) was 113 % of control and the T/C (dose: 4.1 mg/kg/injection, schedule: Q01DX Z (ip), vehicle: saline) was 118 % of control. For the same compound, the T/C (dose: 6.25 mg/kg/injection, schedule: Q01DX015 (ip), vehicle: saline) was 122 % of control, the T/C (dose: 6.25 mg/kg/injection, schedule: Q01DX Z (ip), vehicle: saline) was 120 % of control and the T/C [21] was 153 % of control. For the same compound, the T/C (dose: 21.0 mg/kg/injection, schedule: Q03HX032 (ip), vehicle: saline with Tween-80) was 119 % of control, the T/C (dose: 25.0 mg/kg/injection, schedule: Q01DX015 (ip), vehicle: saline) was 150 % of control and the T/C [16] was 159 % of control. The T/C (dose: 47.0 mg/kg/injection, schedule: Q03HX032 (ip), vehicle: saline with Tween-80) was 120 % of control, the T/C [22] was 170 % of control and the T/C (dose: 100.0 mg/kg/injection, schedule: Q01DX015 (ip), vehicle: saline) was 111 % of control. For the same compound, the T/C (dose: 100.0 mg/kg/injection, schedule: Q01DX Z (ip), vehicle: saline) was 165 % of control, the T/C (dose: 100.0 mg/kg/injection, schedule: Q01DX Z (oral), vehicle: saline) was 112 % of control and the T/C (dose: 150.0 mg/kg/injection, schedule: Q01DX Z (ip), vehicle: saline) was 153 % of control. The T/C (dose: 200.0 mg/kg/injection, schedule: Q01DX015 (ip), vehicle: saline) was 94 % of control, the T/C (dose: 335.0 mg/kg/injection, schedule: Q01DX Z (ip), vehicle: saline) was 118 % of control and the T/C (dose: 335.0 mg/kg/injection, schedule: Q01DX Z (oral), vehicle: saline) was 115 % of control. For the same compound, the T/C (dose: 400.0 mg/kg/injection, schedule: Q01DX015 (ip), vehicle: saline) was 90 % of control.
In the case of `CN(Cc1cnc2nc(N)nc(N)c2n1)c1c(Cl)cc(C(=O)NC(CCC(=O)O)C(=O)O)cc1Br` (stereo not given), the T/C [21] is reported as 162 % of control, the T/C [16] is reported as 196 % of control and the T/C [22] is reported as 241 % of control and 267 % of control. The T/C (dose: 200.0 mg/kg/injection, schedule: Q01DX Z (ip), vehicle: saline) was 101 % of control.
In the case of `Nc1c(-c2ccccc2)[nH][nH]c1=O`, the T/C (dose: 100.0 mg/kg/injection, schedule: Q01DX001 (ip), vehicle: Klucel (hydroxypropylcellulose) (HPC)) is reported as 91 % of control, the T/C [9] is reported as 92 % of control and the T/C [10] is reported as 100 % of control. The T/C (dose: 200.0 mg/kg/injection, schedule: Q01DX001 (ip), vehicle: Klucel (hydroxypropylcellulose) (HPC)) was 99 % of control, the T/C [23] was 92 % of control and the T/C [11] was 102 % of control. The T/C (dose: 400.0 mg/kg/injection, schedule: Q01DX001 (ip), vehicle: Klucel (hydroxypropylcellulose) (HPC)) was 94 % of control, the T/C [24] was 93 % of control and the T/C [12] was 104 % of control.
With `CCN(c1ccccc1C)S(=O)(=O)c1ccccc1` the T/C [9] was 109 % of control, the T/C [10] was 103 % of control and the T/C [23] was 101 % of control. The T/C [11] was 93 % of control, the T/C [24] was 87 % of control and the T/C [12] was 95 % of control.
In the case of `CN(C)/N=N\c1nc[nH]c1C(=O)NN`, the T/C [17] is reported as 107 % of control, the T/C [18] is reported as 101 % of control and the T/C [19] is reported as 107 % of control. The T/C [20] was 110 % of control.
`S=P1(c2ccccc2)Nc2ccc(Cl)cc2N1` (stereo not given) was tested, and the T/C (dose: 75.0 mg/kg/injection, schedule: Q04DX002 (ip), vehicle: gum acacia) was 104 % of control, the T/C (dose: 150.0 mg/kg/injection, schedule: Q04DX002 (ip), vehicle: gum acacia) was 104 % of control and the T/C (dose: 300.0 mg/kg/injection, schedule: Q04DX002 (ip), vehicle: gum acacia) was 101 % of control.
`O=[N+]([O-])c1cc2c(cc1Br)-c1ccccc1/C2=N\O` was tested, and the T/C [25] was 103 % of control, the T/C [26] was 101 % of control and the T/C [27] was 97 % of control.
In the case of `O=C(Nc1ccccc1F)Oc1cccc2ccccc12`, the T/C [1] is reported as 113 % of control, the T/C [2] is reported as 109 % of control and the T/C [3] is reported as 87 % of control.
With `CC1=C(OCC(C)C)CCCC1=O` the T/C [28] was 88 % of control, the T/C [1] was 96 % of control and the T/C [2] was 96 % of control.
In the case of `N=C(N)SCc1ccc(Cl)cc1Cl`, the T/C (dose: 25.0 mg/kg/injection, schedule: Q01DX009 (ip), vehicle: saline with Tween-80) is reported as 100 % of control, the T/C [28] is reported as 96 % of control and the T/C [1] is reported as 98 % of control. For the same compound, the T/C [4] was 96 % of control, the T/C [5] was 89 % of control and the T/C [6] was 96 % of control.
For `O=[N+]([O-])c1ccc(SCc2ccc(Br)cc2)c([N+](=O)[O-])c1`, the T/C [25] was 98 % of control, the T/C [26] was 104 % of control and the T/C [27] was 95 % of control.
For `CC(C)(C)NC(=O)NCc1ccco1`, the T/C (dose: 12.5 mg/kg/injection, schedule: Q01DX009 (ip), vehicle: Klucel (hydroxypropylcellulose) (HPC)) was 98 % of control, the T/C [7] was 98 % of control and the T/C [8] was 101 % of control.
`Cc1ccc(S(=O)(=O)N/N=C/C(O)C(O)C(O)CO)cc1` (stereo not given) was tested, and the T/C [1] was 94 % of control, the T/C (dose: 100.0 mg/kg/injection, schedule: Q04DX003 (ip), vehicle: saline with Tween-80) was 94 % of control and the T/C [2] was 103 % of control. The T/C (dose: 200.0 mg/kg/injection, schedule: Q04DX003 (ip), vehicle: saline with Tween-80) was 94 % of control, the T/C [3] was 96 % of control and the T/C (dose: 400.0 mg/kg/injection, schedule: Q04DX003 (ip), vehicle: saline with Tween-80) was 96 % of control.
